# Measured values taken from paper PMC6784244 (Toxins, 2019).
# Details: pH 7.4
row,Structure (SMILES),"critical pressure of insertion, Cardiolipin"
1,"CC(C)[C@H]1OC(=O)[C@H](Cc2ccccc2)N(C)C(=O)[C@@H](C(C)C)OC(=O)[C@H](Cc2ccccc2)N(C)C(=O)[C@@H](C(C)C)OC(=O)[C@H](Cc2ccccc2)N(C)C1=O [BEA, Beauvericin]",--
2,CC[C@H](C)[C@H]1C(=O)O[C@H](C(C)C)C(=O)N(C)[C@@H]([C@@H](C)CC)C(=O)O[C@H](C(C)C)C(=O)N(C)[C@@H](C(C)C)C(=O)O[C@H](C(C)C)C(=O)N1C [ENN A1],48.57 mN/m
3,CC[C@H](C)[C@H]1C(=O)O[C@H](C(C)C)C(=O)N(C)[C@@H]([C@@H](C)CC)C(=O)O[C@H](C(C)C)C(=O)N(C)[C@@H]([C@@H](C)CC)C(=O)O[C@H](C(C)C)C(=O)N1C [ENN A],49.72 mN/m
4,CC[C@H](C)[C@H]1C(=O)O[C@H](C(C)C)C(=O)N(C)[C@@H](C(C)C)C(=O)O[C@H](C(C)C)C(=O)N(C)[C@@H](C(C)C)C(=O)O[C@H](C(C)C)C(=O)N1C [ENN B1],43.51 mN/m
5,CC(C)[C@H]1C(=O)O[C@H](C(C)C)C(=O)N(C)[C@@H](C(C)C)C(=O)O[C@H](C(C)C)C(=O)N(C)[C@@H](C(C)C)C(=O)O[C@H](C(C)C)C(=O)N1C [ENN B],33.29 mN/m
